# Test system: HCV replication
# Test: Replicon Assay (Huh-lucubineo-ET cells, luciferase readout)
# Format: cell-based
# Conditions: Hepatitis C virus; ET (Huh-lucubineo-ET) HCV replicon cell line; luciferase activity 48-72 hours after compound addition; 6 dilutions
# Description: A cell line, ET (Huh-lucubineo-ET) was used for screening of compounds of the present invention for inhibition of HCV replication. The ET cell line was stably transfected with RNA transcripts harboring a I389luc-ubi-neo/NS3-3′/ET; replicon with firefly luciferase-ubiquitin-neomycin phosphotransferase fusion protein and EMCV-IRES driven NS3-5B polyprotein containing the cell culture adaptive mutations (E1202G; T1280I; K1846T) (Krieger at al, 2001 and unpublished). The ET cells were grown in DMEM, supplemented with 10% fetal calf serum, 2 mM Glutamine, Penicillin (100 IU/mL)/Streptomycin (100 μg/mL), 1× nonessential amino acids, and 250 μg/mL G418 (“Geneticin”). They were all available through Life Technologies (Bethesda, Md.). The cells were plated at 0.5−1.0×10^4 cells/well in the 96 well plates and incubated for 24 hrs before adding the test compounds. The compounds were then added to the cells to achieve a final concentration of 5 or 50 μM. Luciferase activity was measured 48-72 hours later by adding a lysis buffer and the substrate (Catalog number Glo-lysis buffer E2661 and Bright-Glo luciferase system E2620 Promega, Madison, Wis.). Cells should not be too confluent during the assay. Percent inhibition of replication was plotted relative to no compound control. For EC50 (effective concentration at which 50% of the maximum inhibition is observed) determinations, 6 dilutions of each compound were used. Compounds were typically diluted 3 fold to span a concentration range of 250 fold. EC50 and similarly TC50 values were calculated by fitting % inhibition at each concentration to the following equation:
# % inhibition=100%/[(EC50/[I])^b+1]
# where b is Hill's coefficient.
row,SMILES,EC50
1,"COc1ccc(-c2ccc(Cn3cc4nc(-c5cccc(F)c5F)nc-4cn3)cn2)c(C(F)(F)F)c1 [Compound 235, 2-(2,3-Difluoro-phenyl)-5-[6-(4-methoxy-2-trifluoromethyl-phenyl)-pyridin-3-ylmethyl]-5H-imidazo[4,5-d]pyridazine]",10 nM
2,"Fc1cccc(-c2nc3cnn(Cc4ccc(-c5ccc(Cl)cc5C(F)(F)F)nc4)cc-3n2)c1F [Compound 236, 5-[6-(4-Chloro-2-trifluoromethyl-phenyl)-pyridin-3-ylmethyl]-2-(2,3-difluoro-phenyl)-5H-imidazo[4,5-d]pyridazine]",15 nM
3,"Fc1cccc(-c2nc3cnn(Cc4ccc(-c5ccc(C(F)(F)F)cc5Cl)nc4)cc-3n2)c1F [Compound 237, 5-[6-(2-Chloro-4-trifluoromethyl-phenyl)-pyridin-3-ylmethyl]-2-(2,3-difluoro-phenyl)-5H-imidazo[4,5-d]pyridazine]",119 nM
4,"COc1ccc(-c2ccc(Cn3cc4nc(-c5cccc(F)c5F)nc-4cn3)nn2)c(C(F)(F)F)c1 [Compound 238, 2-(2,3-Difluoro-phenyl)-5-[6-(4-methoxy-2-trifluoromethyl-phenyl)-pyridazin-3-ylmethyl]-5H-imidazo[4,5-d]pyridazine]",6 nM
5,"Cc1ccc(-c2ccc(Cn3cc4nc(-c5cccc(F)c5F)nc-4cn3)nc2)c(C(F)(F)F)c1 [Compound 239, 2-(2,3-Difluoro-phenyl)-5-[5-(4-methyl-2-trifluoromethyl-phenyl)-pyridin-2-ylmethyl]-5H-imidazo[4,5-d]pyridazine]",63 nM
6,"Cc1ccc(-c2ccc(Cn3cc4nc(-c5cccc(F)c5F)nc-4cn3)c(N)n2)c(C(F)(F)F)c1 [Compound 240, 3-[2-(2,3-Difluoro-phenyl)-imidazo[4,5-d]pyridazin-5-ylmethyl]-6-(4-methyl-2-trifluoromethyl-phenyl)-pyridin-2-ylamine]",44 nM
7,"COc1ccc(-c2ccc(Cn3cc4nc(-c5cccc(F)c5F)nc-4cn3)cc2)c(C(F)(F)F)c1 [Compound 241, 2-(2,3-Difluoro-phenyl)-5-(4′-methoxy-2′-trifluoromethyl-biphenyl-4-ylmethyl)-5H-imidazo[4,5-d]pyridazine]",21 nM
8,"COc1ccc(-c2ccc(Cn3cc4nc(-c5cccc(F)c5F)nc-4cn3)c(N)n2)c(C(F)(F)F)c1 [Compound 242, 3-[2-(2,3-Difluoro-phenyl)-imidazo[4,5-d]pyridazin-5-ylmethyl]-6-(4-methoxy-2-trifluoromethyl-phenyl)-pyridin-2-ylamine]",44 nM
9,"COc1ccc(-c2ccc(Cn3cc4nc(-c5cccc(F)c5F)nc-4cn3)nc2)c(C(F)(F)F)c1 [Compound 243, 2-(2,3-Difluoro-phenyl)-5-[5-(4-methoxy-2-trifluoromethyl-phenyl)-pyridin-2-ylmethyl]-5H-imidazo[4,5-d]pyridazine]",17 nM
10,"Fc1cccc(-c2nc3cnn(Cc4ccc(-c5ccc(C(F)(F)F)cc5C(F)(F)F)cc4)cc-3n2)c1F [Compound 244, 5-(2′,4′-Bis-trifluoromethyl-biphenyl-4-ylmethyl)-2-(2,3-difluoro-phenyl)-5H-imidazo[4,5-d]pyridazine]",9 nM
11,"CCCOc1ccc(-c2ccc(Cn3cc4nc(-c5cccc(F)c5F)nc-4cn3)cn2)cc1 [Compound 245, 2-(2,3-Difluoro-phenyl)-5-[6-(4-propoxy-phenyl)-pyridin-3-ylmethyl]-5H-imidazo[4,5-d]pyridazine]",8350 nM
12,"Fc1cccc(-c2nc3cnn(Cc4ccc(-c5ccc(C(F)(F)F)cc5)cn4)cc-3n2)c1F [Compound 246, 2-(2,3-Difluoro-phenyl)-5-[5-(4-trifluoromethyl-phenyl)-pyridin-2-ylmethyl]-5H-imidazo[4,5-d]pyridazine]",≥ 50000 nM
13,"CCCOc1ccc(-c2ccc(Cn3cc4nc(-c5cccc(F)c5F)nc-4cn3)nc2)cc1 [Compound 247, 2-(2,3-Difluoro-phenyl)-5-[5-(4-propoxy-phenyl)-pyridin-2-ylmethyl]-5H-imidazo[4,5-d]pyridazine]",5080 nM
14,"Fc1cccc(-c2nc3cnn(Cc4ccc(-c5ccc(OC(F)(F)F)cc5)nc4)cc-3n2)c1F [Compound 249, 2-(2,3-Difluoro-phenyl)-5-[6-(4-trifluoromethoxy-phenyl)-pyridin-3-ylmethyl]-5H-imidazo[4,5-d]pyridazine]",≥ 50000 nM
15,"Fc1cccc(-c2nc3cnn(Cc4ccc(-c5ccccc5C(F)(F)F)nc4)cc-3n2)c1F [Compound 250, 2-(2,3-Difluoro-phenyl)-5-[6-(2-trifluoromethyl-phenyl)-pyridin-3-ylmethyl]-5H-imidazo[4,5-d]pyridazine]",≥ 50000 nM
16,"Fc1cc(C(F)(F)F)ccc1-c1ccc(Cn2cc3nc(-c4cccc(F)c4F)nc-3cn2)cn1 [Compound 251, 2-(2,3-Difluoro-phenyl)-5-[6-(2-fluoro-4-trifluoromethyl-phenyl)-pyridin-3-ylmethyl]-5H-imidazo[4,5-d]pyridazine]",≥ 50000 nM
17,"COc1ccc(-c2ccc(Cn3cc4nc(-c5cccc(F)c5F)nc-4cn3)c(-c3ccc(OC)cc3C(F)(F)F)n2)c(C(F)(F)F)c1 [Compound 252, 5-[2,6-Bis-(4-methoxy-2-trifluoromethyl-phenyl)-pyridin-3-ylmethyl]-2-(2,3-difluoro-phenyl)-5H-imidazo[4,5-d]pyridazine]",2640 nM
18,"Fc1cccc(-c2nc3cnn(Cc4ccc(-c5ccc(C(F)(F)F)cc5)nc4)cc-3n2)c1F [Compound 253, 2-(2,3-Difluoro-phenyl)-5-[6-(4-trifluoromethyl-phenyl)-pyridin-3-ylmethyl]-5H-imidazo[4,5-d]pyridazine]",≥ 50000 nM
19,"Fc1cc(C(F)(F)F)ccc1-c1ccc(Cn2cc3nc(-c4cccc(F)c4F)nc-3cn2)nc1 [Compound 254, 2-(2,3-Difluoro-phenyl)-5-[5-(2-fluoro-4-trifluoromethyl-phenyl)-pyridin-2-ylmethyl]-5H-imidazo[4,5-d]pyridazine]",≥ 50000 nM
20,"COc1ccc(-c2ccc(Cn3cc4nc(-c5cccc(F)c5F)nc-4cn3)c(Cl)n2)c(C(F)(F)F)c1 [Compound 255, 5-[2-Chloro-6-(4-methoxy-2-trifluoromethyl-phenyl)-pyridin-3-ylmethyl]-2-(2,3-difluoro-phenyl)-5H-imidazo[4,5-d]pyridazine]",69 nM
21,"Fc1cccc(-c2nc3cnn(Cc4cccc(-c5ccc(C(F)(F)F)cc5C(F)(F)F)c4)cc-3n2)c1F [Compound 256, 5-(2′,4′-Bis-trifluoromethyl-biphenyl-3-ylmethyl)-2-(2,3-difluoro-phenyl)-5H-imidazo[4,5-d]pyridazine]",9790 nM
22,"Fc1cc(-c2ccc(C(F)(F)F)cc2C(F)(F)F)ccc1Cn1cc2nc(-c3cccc(F)c3F)nc-2cn1 [Compound 257, 2-(2,3-Difluoro-phenyl)-5-(3-fluoro-2′,4′-bis-trifluoromethyl-biphenyl-4-ylmethyl)-5H-imidazo[4,5-d]pyridazine]",45 nM
23,"COc1ccc(-c2ccc(Cn3cc4nc(-c5cccc(F)c5F)nc-4cn3)cc2[N+](=O)[O-])c(C(F)(F)F)c1 [Compound 258, 2-(2,3-Difluoro-phenyl)-5-(4′-methoxy-2-nitro-2′-trifluoromethyl-biphenyl-4-ylmethyl)-5H-imidazo[4,5-d]pyridazine]",228 nM
24,"COc1ccc(-c2ccc(Cn3cc4nc(-c5cccc(F)c5F)nc-4cn3)c(F)c2)c(C(F)(F)F)c1 [Compound 259, 2-(2,3-Difluoro-phenyl)-5-(3-fluoro-4′-methoxy-2′-trifluoromethyl-biphenyl-4-ylmethyl)-5H-imidazo[4,5-d]pyridazine]",20 nM
25,"CCCOc1ccc(-c2ccc(Cn3cc4nc(-c5cccc(F)c5F)nc-4cn3)cc2[N+](=O)[O-])cc1 [Compound 260, 2-(2,3-Difluoro-phenyl)-5-(2-nitro-4′-propoxy-biphenyl-4-ylmethyl)-5H-imidazo[4,5-d]pyridazine]",146 nM
26,"COc1ccc(-c2ccc(Cn3cc4nc(-c5cccc(F)c5F)nc-4cn3)cc2F)c(C(F)(F)F)c1 [Compound 261, 2-(2,3-Difluoro-phenyl)-5-(2-fluoro-4′-methoxy-2′-trifluoromethyl-biphenyl-4-ylmethyl)-5H-imidazo[4,5-d]pyridazine]",50 nM
27,"Fc1cccc(-c2nc3cnn(Cc4ccc(Br)cn4)cc-3n2)c1F [Compound 262, 5-(5-bromo-pyridin-2-ylmethyl)-2-(2,3-difluoro-phenyl)-5H-imidazo[4,5-d]pyridazine]",≥ 50000 nM
28,"Fc1cccc(-c2nc3cnn(Cc4ccc(C(F)(F)F)cc4C(F)(F)F)cc-3n2)c1F [Compound 263, 5-(2,4-Bis-trifluoromethyl-benzyl)-2-(2,3-difluoro-phenyl)-5H-imidazo[4,5-d]pyridazine]",≥ 50000 nM
29,"N#Cc1ccccc1-c1ccc(Cn2cc3nc(-c4cccc(F)c4F)nc-3cn2)cc1 [Compound 264, 4′-[2-(2,3-Difluoro-phenyl)-imidazo[4,5-d]pyridazin-5-ylmethyl]-biphenyl-2-carbonitrile]",892 nM

# — patent US20090226398A1, “ANTI-VIRAL COMPOUNDS, COMPOSITIONS, AND METHODS OF USE” (Genelabs Technologies, Inc., priority 2008, published 2009)
